# Key:
# PRKD1 = target: T1, PRKD1 (Homo sapiens, UniProt Q15139); assay: Kinome-wide inhibition profiling; type: biochemical
# T1 construct: purchased Reaction Biology Corp
# Experimental: (§1) In vitro CDK12/cyclinK assays for all compounds and in vitro kinome-wide inhibition profiling of 30d at 10 μM were performed by a CRO company (Reaction Biology Corp., San Diego, CA, USA).
# LATS2 = target: T2, LATS2 (Homo sapiens, UniProt Q9NRM7); assay: Kinome-wide inhibition profiling; type: biochemical
# T2 construct: purchased Reaction Biology Corp
# Experimental: as §1
# NDR2 = target: T3, NDR2 (Homo sapiens, UniProt Q9Y2H1); assay: Kinome-wide inhibition profiling; type: biochemical
# T3 construct: purchased Reaction Biology Corp
# Experimental: as §1
# MUSK = target: T4, MUSK (Homo sapiens, UniProt O15146); assay: Kinome-wide inhibition profiling; type: biochemical
# T4 construct: purchased Reaction Biology Corp
# Experimental: as §1
# SLK = target: T5, SLK (Homo sapiens, UniProt Q9H2G2); assay: Kinome-wide inhibition profiling; type: biochemical
# T5 construct: purchased Reaction Biology Corp
# Experimental: as §1
# MST1R = target: T6, MST1R (Homo sapiens, UniProt Q04912); assay: Kinome-wide inhibition profiling; type: biochemical
# T6 construct: purchased Reaction Biology Corp
# Experimental: as §1
# TNK1 = target: T7, TNK1 (Homo sapiens, UniProt Q13470); assay: Kinome-wide inhibition profiling; type: biochemical
# T7 construct: purchased Reaction Biology Corp
# Experimental: as §1
# FYN = target: T8, FYN (Homo sapiens, UniProt P06241); assay: Kinome-wide inhibition profiling; type: biochemical
# T8 construct: purchased Reaction Biology Corp
# Experimental: as §1
# EPHA2 = target: T9, EPHA2 (Homo sapiens, UniProt P29317); assay: Kinome-wide inhibition profiling; type: biochemical
# T9 construct: purchased Reaction Biology Corp
# Experimental: as §1
# MARK2 = target: T10, MARK2 (Homo sapiens, UniProt Q7KZI7); assay: Kinome-wide inhibition profiling; type: biochemical
# T10 construct: purchased Reaction Biology Corp
# Experimental: as §1
# ABL2 = target: T11, ABL2 (Homo sapiens, UniProt P42684); assay: Kinome-wide inhibition profiling; type: biochemical
# T11 construct: purchased Reaction Biology Corp
# Experimental: as §1
# HIPK1 = target: T12, HIPK1 (Homo sapiens, UniProt Q86Z02); assay: Kinome-wide inhibition profiling; type: biochemical
# T12 construct: purchased Reaction Biology Corp
# Experimental: as §1
# MAPKAPK2 = target: T13, MAPKAPK2 (Homo sapiens, UniProt P49137); assay: Kinome-wide inhibition profiling; type: biochemical
# T13 construct: purchased Reaction Biology Corp
# Experimental: as §1
# CAMKK2 = target: T14, CAMKK2 (Homo sapiens, UniProt Q96RR4); assay: Kinome-wide inhibition profiling; type: biochemical
# T14 construct: purchased Reaction Biology Corp
# Experimental: as §1
# NEK3 = target: T15, NEK3 (Homo sapiens, UniProt P51956); assay: Kinome-wide inhibition profiling; type: biochemical
# T15 construct: purchased Reaction Biology Corp
# Experimental: as §1
# TTBK2 = target: T16, TTBK2 (Homo sapiens, UniProt Q6IQ55); assay: Kinome-wide inhibition profiling; type: biochemical
# T16 construct: purchased Reaction Biology Corp
# Experimental: as §1
# PHKg1 = target: T17, PHKg1 (Homo sapiens, UniProt Q16816); assay: Kinome-wide inhibition profiling; type: biochemical
# T17 construct: purchased Reaction Biology Corp
# Experimental: as §1
# FLT3 = target: T18, FLT3 (Homo sapiens, UniProt P36888); assay: Kinome-wide inhibition profiling; type: biochemical
# T18 construct: purchased Reaction Biology Corp
# Experimental: as §1
# ERK5 [1] = target: T19, ERK5 (Homo sapiens, UniProt Q13164); assay: Kinome-wide inhibition profiling; type: biochemical
# T19 construct: purchased Reaction Biology Corp
# Experimental: as §1
# MET = target: T20, MET (Homo sapiens, UniProt P08581); assay: Kinome-wide inhibition profiling; type: biochemical
# T20 construct: purchased Reaction Biology Corp
# Experimental: as §1
# KSR2 = target: T21, KSR2 (Homo sapiens, UniProt Q6VAB6); assay: Kinome-wide inhibition profiling; type: biochemical
# T21 construct: purchased Reaction Biology Corp
# Experimental: as §1
# PRKG2 = target: T22, PRKG2 (Homo sapiens, UniProt Q13237); assay: Kinome-wide inhibition profiling; type: biochemical
# T22 construct: purchased Reaction Biology Corp
# Experimental: as §1
# EPHB3 = target: T23, EPHB3 (Homo sapiens, UniProt P54753); assay: Kinome-wide inhibition profiling; type: biochemical
# T23 construct: purchased Reaction Biology Corp
# Experimental: as §1
# [2] = target: T24, RPS6KA4(Kin.Dom.1-N-term) (Homo sapiens, UniProt O75676); assay: Kinome-wide inhibition profiling; type: biochemical
# T24 construct: RPS6KA4(Kin.Dom.1-N-term); purchased Reaction Biology Corp
# Experimental: as §1
# PAK5 = target: T25, PAK5 (Homo sapiens, UniProt Q9P286); assay: Kinome-wide inhibition profiling; type: biochemical
# T25 construct: purchased Reaction Biology Corp
# Experimental: as §1
# PAK4 = target: T26, PAK4 (Homo sapiens, UniProt O96013); assay: Kinome-wide inhibition profiling; type: biochemical
# T26 construct: purchased Reaction Biology Corp
# Experimental: as §1
# PKCzeta = target: T27, PKCzeta (Homo sapiens, UniProt Q05513); assay: Kinome-wide inhibition profiling; type: biochemical
# T27 construct: purchased Reaction Biology Corp
# Experimental: as §1
# CLK1 = target: T28, CLK1 (Homo sapiens, UniProt P49759); assay: Kinome-wide inhibition profiling; type: biochemical
# T28 construct: purchased Reaction Biology Corp
# Experimental: as §1
# ZAP70 = target: T29, ZAP70 (Homo sapiens, UniProt P43403); assay: Kinome-wide inhibition profiling; type: biochemical
# T29 construct: purchased Reaction Biology Corp
# Experimental: as §1
# MARK1 = target: T30, MARK1 (Homo sapiens, UniProt Q9P0L2); assay: Kinome-wide inhibition profiling; type: biochemical
# T30 construct: purchased Reaction Biology Corp
# Experimental: as §1
# CDK4/cyclinD3 = target: T31, CDK4/cyclinD3 (Homo sapiens, UniProt P11802); assay: Kinome-wide inhibition profiling; type: biochemical
# T31 construct: purchased Reaction Biology Corp
# Experimental: as §1
# PKAC-alpha = assay: Kinome-wide inhibition profiling; type: biochemical, human; details: 10 μM
# Experimental: as §1
# CDK12/CyclinK = CDK12/CyclinK (Homo sapiens, UniProt Q9NYV4); assay: Kinome-wide inhibition profiling; type: biochemical; set-up: purchased Reaction Biology Corp
# Experimental: as §1
# CDK4-cyclinD3 = system: CDK4-cyclinD3; set-up: method as in HMS LINCS database; details: 10 μM, ref HMS LINCS database; cited from earlier work
# CDK5 = system: CDK5; set-up: method as in HMS LINCS database; details: 10 μM, ref HMS LINCS database; cited from earlier work
# CDC2L5 = system: CDC2L5; set-up: method as in HMS LINCS database; details: 10 μM, ref HMS LINCS database; cited from earlier work
# HIPK2 = target: T32, HIPK2 (Homo sapiens, UniProt Q9H2X6); set-up: method as in HMS LINCS database; details: 10 μM, ref HMS LINCS database; cited from earlier work
# T32 construct: purchased Reaction Biology Corp
# DYRK1A = target: T33, DYRK1A (Homo sapiens, UniProt Q13627); set-up: method as in HMS LINCS database; details: 10 μM, ref HMS LINCS database; cited from earlier work
# T33 construct: purchased Reaction Biology Corp
# ERK5 [3] = target: T19, ERK5; set-up: method as in HMS LINCS database; details: 10 μM, ref HMS LINCS database; cited from earlier work
# TLK2 = target: T34, TLK2 (Homo sapiens, UniProt Q86UE8); set-up: method as in HMS LINCS database; details: 10 μM, ref HMS LINCS database; cited from earlier work
# T34 construct: purchased Reaction Biology Corp
# CDKL2 = system: CDKL2; set-up: method as in HMS LINCS database; details: 10 μM, ref HMS LINCS database; cited from earlier work
# Chain of CDK12/CyclinK (Q9NYV4 whole entry): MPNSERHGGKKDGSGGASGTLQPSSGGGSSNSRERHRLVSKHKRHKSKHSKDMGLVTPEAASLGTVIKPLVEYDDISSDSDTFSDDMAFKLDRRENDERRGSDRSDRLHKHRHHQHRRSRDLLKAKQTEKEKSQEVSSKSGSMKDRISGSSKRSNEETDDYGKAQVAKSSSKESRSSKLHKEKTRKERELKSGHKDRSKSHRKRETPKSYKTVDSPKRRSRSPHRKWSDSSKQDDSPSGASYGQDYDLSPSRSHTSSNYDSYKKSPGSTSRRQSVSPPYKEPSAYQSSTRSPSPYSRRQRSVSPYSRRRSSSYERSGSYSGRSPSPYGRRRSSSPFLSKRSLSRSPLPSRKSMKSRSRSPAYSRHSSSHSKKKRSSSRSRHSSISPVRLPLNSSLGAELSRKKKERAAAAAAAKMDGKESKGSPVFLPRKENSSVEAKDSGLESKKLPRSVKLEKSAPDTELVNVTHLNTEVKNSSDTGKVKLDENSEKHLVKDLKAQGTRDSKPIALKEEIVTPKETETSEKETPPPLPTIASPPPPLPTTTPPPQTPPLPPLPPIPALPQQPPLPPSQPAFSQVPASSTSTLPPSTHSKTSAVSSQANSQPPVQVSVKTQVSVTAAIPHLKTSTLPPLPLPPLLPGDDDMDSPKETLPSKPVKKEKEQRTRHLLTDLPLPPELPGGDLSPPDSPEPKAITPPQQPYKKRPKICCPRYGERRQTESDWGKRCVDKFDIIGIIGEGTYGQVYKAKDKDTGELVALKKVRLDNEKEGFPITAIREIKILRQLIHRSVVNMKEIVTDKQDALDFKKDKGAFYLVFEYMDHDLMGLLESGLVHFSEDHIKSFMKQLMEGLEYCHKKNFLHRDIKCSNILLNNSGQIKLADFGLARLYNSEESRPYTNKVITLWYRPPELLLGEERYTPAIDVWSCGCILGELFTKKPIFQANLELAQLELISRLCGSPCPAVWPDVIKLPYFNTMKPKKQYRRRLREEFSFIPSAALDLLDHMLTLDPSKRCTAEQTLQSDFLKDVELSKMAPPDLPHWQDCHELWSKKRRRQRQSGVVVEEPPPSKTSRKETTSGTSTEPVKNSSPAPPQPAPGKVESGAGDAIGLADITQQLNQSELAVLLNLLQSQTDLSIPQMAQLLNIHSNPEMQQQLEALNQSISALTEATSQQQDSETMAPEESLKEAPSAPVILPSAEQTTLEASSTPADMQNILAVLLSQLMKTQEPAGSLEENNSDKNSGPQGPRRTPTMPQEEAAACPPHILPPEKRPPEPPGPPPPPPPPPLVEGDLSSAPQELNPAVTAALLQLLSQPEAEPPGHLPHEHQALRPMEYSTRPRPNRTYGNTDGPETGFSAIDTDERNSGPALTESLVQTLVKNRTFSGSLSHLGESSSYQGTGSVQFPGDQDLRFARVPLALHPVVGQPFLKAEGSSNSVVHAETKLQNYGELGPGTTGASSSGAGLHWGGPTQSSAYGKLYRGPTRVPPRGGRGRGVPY
# Chain of CDK12/CyclinK (O75909 whole entry partner): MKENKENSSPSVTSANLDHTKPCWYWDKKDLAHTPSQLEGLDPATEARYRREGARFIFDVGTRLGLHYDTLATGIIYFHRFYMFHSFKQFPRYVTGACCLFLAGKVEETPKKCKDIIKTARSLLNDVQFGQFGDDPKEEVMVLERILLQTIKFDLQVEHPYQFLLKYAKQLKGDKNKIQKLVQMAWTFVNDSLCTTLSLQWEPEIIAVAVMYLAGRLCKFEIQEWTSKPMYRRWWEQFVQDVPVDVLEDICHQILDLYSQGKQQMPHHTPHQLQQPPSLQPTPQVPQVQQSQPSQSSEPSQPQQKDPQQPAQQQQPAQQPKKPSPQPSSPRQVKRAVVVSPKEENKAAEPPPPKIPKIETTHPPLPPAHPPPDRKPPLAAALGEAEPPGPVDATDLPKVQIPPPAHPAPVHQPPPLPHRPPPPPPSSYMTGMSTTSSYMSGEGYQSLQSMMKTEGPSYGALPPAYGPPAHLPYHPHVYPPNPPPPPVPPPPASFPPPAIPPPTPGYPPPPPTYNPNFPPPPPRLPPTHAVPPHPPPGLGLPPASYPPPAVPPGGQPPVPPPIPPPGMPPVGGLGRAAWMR
# T19 sequence (Q13164 whole entry): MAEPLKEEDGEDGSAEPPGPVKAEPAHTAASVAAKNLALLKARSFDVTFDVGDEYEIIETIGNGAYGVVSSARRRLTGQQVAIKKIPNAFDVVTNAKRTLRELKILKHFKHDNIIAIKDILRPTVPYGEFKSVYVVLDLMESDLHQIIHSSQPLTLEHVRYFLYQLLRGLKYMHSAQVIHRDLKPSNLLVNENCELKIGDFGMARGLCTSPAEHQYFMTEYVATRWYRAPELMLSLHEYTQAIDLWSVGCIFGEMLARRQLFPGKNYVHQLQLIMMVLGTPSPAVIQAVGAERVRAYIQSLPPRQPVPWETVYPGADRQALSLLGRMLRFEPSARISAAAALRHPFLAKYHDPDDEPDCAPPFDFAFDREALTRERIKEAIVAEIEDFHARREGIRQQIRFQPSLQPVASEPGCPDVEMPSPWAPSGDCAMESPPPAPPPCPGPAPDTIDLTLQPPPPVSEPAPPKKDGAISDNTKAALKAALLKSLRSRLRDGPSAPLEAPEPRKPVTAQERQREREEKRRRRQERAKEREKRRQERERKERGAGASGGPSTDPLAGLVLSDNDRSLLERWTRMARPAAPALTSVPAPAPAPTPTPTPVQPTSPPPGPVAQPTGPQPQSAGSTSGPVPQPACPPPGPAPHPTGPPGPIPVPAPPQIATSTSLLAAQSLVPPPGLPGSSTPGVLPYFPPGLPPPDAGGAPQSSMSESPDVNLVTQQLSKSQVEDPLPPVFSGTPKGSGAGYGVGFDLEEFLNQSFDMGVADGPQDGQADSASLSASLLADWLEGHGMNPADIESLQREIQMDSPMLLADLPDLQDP
# T20 sequence (P08581 25-1390): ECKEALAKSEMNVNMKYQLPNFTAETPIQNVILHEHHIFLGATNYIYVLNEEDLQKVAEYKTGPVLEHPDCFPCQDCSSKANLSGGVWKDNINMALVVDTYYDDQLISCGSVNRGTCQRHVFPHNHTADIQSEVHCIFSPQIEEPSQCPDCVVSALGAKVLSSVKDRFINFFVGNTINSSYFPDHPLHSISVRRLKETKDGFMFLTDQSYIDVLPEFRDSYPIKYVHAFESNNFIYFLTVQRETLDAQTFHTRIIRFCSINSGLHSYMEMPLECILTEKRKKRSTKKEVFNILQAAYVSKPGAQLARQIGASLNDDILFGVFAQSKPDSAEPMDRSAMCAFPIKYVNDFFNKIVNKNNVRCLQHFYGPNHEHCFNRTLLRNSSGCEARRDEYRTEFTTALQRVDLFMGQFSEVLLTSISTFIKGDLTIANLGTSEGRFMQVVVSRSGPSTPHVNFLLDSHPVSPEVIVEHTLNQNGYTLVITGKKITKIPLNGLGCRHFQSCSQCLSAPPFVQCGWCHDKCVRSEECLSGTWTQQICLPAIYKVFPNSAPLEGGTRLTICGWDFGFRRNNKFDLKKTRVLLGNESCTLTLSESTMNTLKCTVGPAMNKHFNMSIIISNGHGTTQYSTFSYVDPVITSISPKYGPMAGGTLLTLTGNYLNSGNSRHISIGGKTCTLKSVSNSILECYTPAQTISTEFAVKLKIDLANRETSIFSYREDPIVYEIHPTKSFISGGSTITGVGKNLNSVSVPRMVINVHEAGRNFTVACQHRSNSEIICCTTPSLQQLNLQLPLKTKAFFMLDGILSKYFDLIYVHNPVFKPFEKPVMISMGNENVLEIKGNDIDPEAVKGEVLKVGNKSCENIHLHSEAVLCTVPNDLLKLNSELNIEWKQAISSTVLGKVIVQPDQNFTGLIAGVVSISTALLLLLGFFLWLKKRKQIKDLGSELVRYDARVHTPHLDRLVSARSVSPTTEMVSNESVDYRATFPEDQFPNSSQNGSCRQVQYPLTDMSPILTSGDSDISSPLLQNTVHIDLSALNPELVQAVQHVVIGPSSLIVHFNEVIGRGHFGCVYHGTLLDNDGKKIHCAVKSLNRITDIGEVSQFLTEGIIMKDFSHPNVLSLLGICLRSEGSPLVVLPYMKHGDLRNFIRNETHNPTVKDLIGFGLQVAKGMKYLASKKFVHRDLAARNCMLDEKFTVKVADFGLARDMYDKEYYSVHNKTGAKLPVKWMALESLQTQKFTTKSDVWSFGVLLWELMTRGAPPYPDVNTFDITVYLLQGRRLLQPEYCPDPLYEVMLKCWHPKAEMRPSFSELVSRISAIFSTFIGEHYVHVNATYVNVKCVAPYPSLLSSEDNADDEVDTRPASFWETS
# T4 sequence (O15146 24-869): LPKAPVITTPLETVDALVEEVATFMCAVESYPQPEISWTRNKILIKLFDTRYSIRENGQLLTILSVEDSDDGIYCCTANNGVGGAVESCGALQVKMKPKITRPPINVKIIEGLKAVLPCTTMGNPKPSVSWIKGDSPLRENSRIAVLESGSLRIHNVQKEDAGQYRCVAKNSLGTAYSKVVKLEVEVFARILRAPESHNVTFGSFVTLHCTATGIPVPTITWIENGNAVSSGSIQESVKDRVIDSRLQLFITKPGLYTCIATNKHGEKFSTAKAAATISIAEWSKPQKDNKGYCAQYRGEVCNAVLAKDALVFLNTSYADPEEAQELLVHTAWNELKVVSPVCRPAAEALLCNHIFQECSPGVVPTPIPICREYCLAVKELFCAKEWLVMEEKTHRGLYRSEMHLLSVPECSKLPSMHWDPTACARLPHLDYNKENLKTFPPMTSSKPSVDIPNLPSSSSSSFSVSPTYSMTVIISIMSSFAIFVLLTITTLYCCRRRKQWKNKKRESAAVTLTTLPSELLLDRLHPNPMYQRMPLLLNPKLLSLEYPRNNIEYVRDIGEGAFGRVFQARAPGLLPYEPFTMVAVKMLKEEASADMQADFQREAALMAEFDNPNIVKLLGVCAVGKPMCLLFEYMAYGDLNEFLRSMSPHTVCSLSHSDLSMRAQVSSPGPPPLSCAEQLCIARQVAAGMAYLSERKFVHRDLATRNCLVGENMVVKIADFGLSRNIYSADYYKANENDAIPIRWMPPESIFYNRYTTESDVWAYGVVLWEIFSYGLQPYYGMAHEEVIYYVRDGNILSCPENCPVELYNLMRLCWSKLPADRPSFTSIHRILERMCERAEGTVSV
smiles,measurement,setting,value
"CCn1cnc2c(NCc3ccc(-c4ccccn4)nc3)nc(-c3ccc(N)nc3)nc21 [Compound 30d, N-([2,2′-Bipyridin]-5-ylmethyl)-2-(6-aminopyridin-3-yl)-9-ethyl-9H-purin-6-amine]",remaining activity at 10 µM,PRKD1,70.3%
same,remaining activity at 10 µM,LATS2,77.4%
same,remaining activity at 10 µM,NDR2,36.9%
same,remaining activity at 10 µM,MUSK,10.2%
same,remaining activity at 10 µM,SLK,69.5%
same,remaining activity at 10 µM,MST1R,86.8%
same,remaining activity at 10 µM,TNK1,91.3%
same,remaining activity at 10 µM,FYN,81%
same,remaining activity at 10 µM,EPHA2,42.3%
same,remaining activity at 10 µM,MARK2,74.3%
same,remaining activity at 10 µM,ABL2,56.1%
same,remaining activity at 10 µM,HIPK1,93%
same,remaining activity at 10 µM,MAPKAPK2,102%
same,remaining activity at 10 µM,CAMKK2,10.6%
same,remaining activity at 10 µM,NEK3,86.6%
same,remaining activity at 10 µM,TTBK2,97.3%
same,remaining activity at 10 µM,PHKg1,16.5%
same,remaining activity at 10 µM,FLT3,40.2%
same,remaining activity at 10 µM,ERK5 [1],97.7%
same,remaining activity at 10 µM,MET,96.4%
same,remaining activity at 10 µM,KSR2,88.4%
same,remaining activity at 10 µM,PRKG2,99.5%
same,remaining activity at 10 µM,EPHB3,66%
same,remaining activity at 10 µM,[2],115%
same,remaining activity at 10 µM,PAK5,7.6%
same,remaining activity at 10 µM,PAK4,12.9%
same,remaining activity at 10 µM,PKCzeta,90.2%
same,remaining activity at 10 µM,CLK1,13.7%
same,remaining activity at 10 µM,ZAP70,100%
same,remaining activity at 10 µM,MARK1,81.5%
same,remaining activity at 10 µM,CDK4/cyclinD3,28.6%
same,% remaining activity,PKAC-alpha,62.4%
same,inhibition at 10 µM,CDK12/CyclinK,> 95%
same,remaining activity at 10 µM,CDK12/CyclinK,1.1%
CCc1cnn2c(NCc3ccc[n+]([O-])c3)cc(N3CCCC[C@H]3CCO)nc12 [Dinaciclib],% control,CDK4-cyclinD3,2.0%
same,% control,CDK5,1.8%
same,% control,CDC2L5,0.3%
same,% control,HIPK2,3.6%
same,% control,DYRK1A,6.0%
same,% control,ERK5 [3],2.9%
same,% control,TLK2,0.5%
same,% control,CDKL2,10%
